What was measured:
Format in all cases: biochemical
human GST-DYRK1A = biological target: T1, human GST-DYRK1A (Homo sapiens, UniProt Q13627); assay: GST-DYRK1A enzyme inhibition, ADP-Glo kinase assay; settings: ATP 10 μM, GST-DYRK1A full length, read-out: DYRK1 IC50
T1 construct: purified human GST-DYRK1A (full length, Thermo Scientifics) enzyme; purchased Thermo Scientifics
Summary of the method: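 Full-length enzyme (10 ng) was incubated with 10 μM ATP and a specific substrate for 1 h at 25 °C in 40 mM Tris-HCl pH 7.4, 20 mM MgCl2, 0.5 mg/mL BSA, 50 μM DTT. Luminescence was read against a solvent control, and IC50 values were derived from 3 data sets.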

human GST-CLK1 = biological target: T2, human GST-CLK1 (Homo sapiens, UniProt P49759); assay: GST-CLK1 enzyme inhibition, ADP-Glo kinase assay; settings: ATP 10 μM, GST-CLK1 129-end
T2 construct: purified human GST-CLK1 (129-end, SignalChem) enzyme; purchased SignalChem
T2 sequence (P49759 129-484 limits assumed): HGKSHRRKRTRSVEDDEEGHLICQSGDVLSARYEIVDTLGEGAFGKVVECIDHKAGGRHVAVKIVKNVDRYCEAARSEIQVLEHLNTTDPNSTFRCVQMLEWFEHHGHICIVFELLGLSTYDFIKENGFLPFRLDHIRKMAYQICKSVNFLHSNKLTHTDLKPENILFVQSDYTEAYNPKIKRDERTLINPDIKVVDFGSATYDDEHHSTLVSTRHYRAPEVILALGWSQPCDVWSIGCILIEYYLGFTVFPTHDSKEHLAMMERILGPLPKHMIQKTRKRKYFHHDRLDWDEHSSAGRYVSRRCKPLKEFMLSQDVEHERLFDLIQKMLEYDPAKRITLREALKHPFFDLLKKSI
Summary of the method: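 ADP-Glo luminescence read-out, relative to untreated solvent control, gave IC50 (nM) from triplicate data sets. Reactions ran an hour at 25° C with 3 ng GST-CLK1 (residues 129-end), 10 μM ATP and specific substrate in Tris-HCl pH 7.4 buffer with MgCl2, BSA and DTT.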

LRRK2 = LRRK2 (Homo sapiens, UniProt Q5S007); assay: LRRK2 enzyme inhibition, ADP-Glo kinase assay; design: purchased Invitrogen PR8604B; settings: ATP 10 μM
Sequence of LRRK2 (Q5S007 970-2527 limits assumed): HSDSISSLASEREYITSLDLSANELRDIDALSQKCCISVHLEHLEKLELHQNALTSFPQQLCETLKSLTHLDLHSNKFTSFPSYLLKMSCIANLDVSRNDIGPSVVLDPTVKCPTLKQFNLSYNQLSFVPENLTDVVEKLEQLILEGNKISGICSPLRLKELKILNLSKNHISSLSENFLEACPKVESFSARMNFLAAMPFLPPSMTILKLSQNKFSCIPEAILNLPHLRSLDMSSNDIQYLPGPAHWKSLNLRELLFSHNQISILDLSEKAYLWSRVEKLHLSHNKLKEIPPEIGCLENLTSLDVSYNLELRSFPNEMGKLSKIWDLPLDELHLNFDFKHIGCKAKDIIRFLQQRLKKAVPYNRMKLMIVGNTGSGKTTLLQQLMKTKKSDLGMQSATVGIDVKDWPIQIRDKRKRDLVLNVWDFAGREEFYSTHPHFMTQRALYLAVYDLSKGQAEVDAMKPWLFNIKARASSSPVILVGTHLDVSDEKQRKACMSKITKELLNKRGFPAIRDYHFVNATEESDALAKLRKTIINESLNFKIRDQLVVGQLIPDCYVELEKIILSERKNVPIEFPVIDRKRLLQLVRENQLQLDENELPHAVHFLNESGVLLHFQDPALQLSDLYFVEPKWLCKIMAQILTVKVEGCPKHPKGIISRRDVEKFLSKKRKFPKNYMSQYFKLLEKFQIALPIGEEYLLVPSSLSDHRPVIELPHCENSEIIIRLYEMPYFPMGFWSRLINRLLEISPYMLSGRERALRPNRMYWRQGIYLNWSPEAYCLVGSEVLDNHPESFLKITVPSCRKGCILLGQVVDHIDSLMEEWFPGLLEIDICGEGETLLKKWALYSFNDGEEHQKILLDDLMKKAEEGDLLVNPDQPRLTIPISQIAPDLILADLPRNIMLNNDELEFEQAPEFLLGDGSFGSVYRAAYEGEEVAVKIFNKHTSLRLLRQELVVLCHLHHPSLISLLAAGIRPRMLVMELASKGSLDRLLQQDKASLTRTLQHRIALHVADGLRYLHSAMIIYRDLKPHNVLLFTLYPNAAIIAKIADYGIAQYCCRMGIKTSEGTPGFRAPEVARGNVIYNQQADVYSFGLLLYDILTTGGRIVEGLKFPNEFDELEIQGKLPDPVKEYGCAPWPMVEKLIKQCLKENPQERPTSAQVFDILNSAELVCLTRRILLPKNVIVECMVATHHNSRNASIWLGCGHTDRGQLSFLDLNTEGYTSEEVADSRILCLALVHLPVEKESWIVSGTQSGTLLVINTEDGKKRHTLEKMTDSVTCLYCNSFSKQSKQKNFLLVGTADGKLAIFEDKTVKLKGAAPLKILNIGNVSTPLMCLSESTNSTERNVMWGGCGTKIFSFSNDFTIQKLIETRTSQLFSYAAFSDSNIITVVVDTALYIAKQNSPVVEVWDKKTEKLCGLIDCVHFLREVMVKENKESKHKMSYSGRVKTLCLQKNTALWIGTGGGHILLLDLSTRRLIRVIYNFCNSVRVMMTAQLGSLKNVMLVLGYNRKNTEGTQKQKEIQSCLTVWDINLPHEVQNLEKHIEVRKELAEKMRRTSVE
Description: To evaluate an inhibitory activity of the compound according to the present invention against LRRK2, LRRK2 (G2019S), DYRK1, CLK1, and TTK kinases, experiments were performed as follows.
Each of the Example compounds was reacted with a purified human LRRK2 (Invitrogen #PR8604B) enzyme to evaluate an ability to inhibit an enzyme using a method as described below. A composition of 40 mM Tris-HCl (pH 7.4), 20 mM MgCl2, 0.5 mg/mL BSA, and 50 μM DTT was used as a reaction buffer, and all reactions of test substances were performed in the reaction buffer. Each of the compounds was diluted […] from a 10 mM DMSO stock using a serial dilution method, and enzyme activities were measured at final compound concentrations of 50, 10, 2, 0.4, 0.08, 0.016, 0.0032, 0.00064, 0.000128, 0.0000256, 0.00000512, and 0.000001024 μM. In the test, purified ATP (10 μM) and an enzyme substrate (0.2 μg) were reacted with a human LRRK2 (25 ng) enzyme at 25° C. for 2 hours, and the enzyme activities were determined using an in vitro ADP-Glo™ kinase assay (Promega). An enzyme-activity reaction solution, an ADP-Glo reaction solution, and an enzyme-ability detection solution were reacted at a ratio of 2:2:1 to measure a degree of inhibition of the enzyme activity with luminescence. The degree of inhibition of the enzyme activity according to the treatment concentration of each of the compounds was calculated based on the fluorescence of the enzyme activity of the solvent control which was not treated with the compound. In this case, the concentration of each of the compounds inhibiting 50% of the enzyme activity was determined to be an IC50 (nM) value, and calculated using Prism (Version 5.01; GraphPad) software.

| IC50 (human GST-DYRK1A) | IC50 (human GST-CLK1) | IC50 (LRRK2) | Structure (SMILES) |
| --- | --- | --- | --- |
| 301 to 1000 nM | 301 to 1000 nM | < 100 nM | COc1cc(S(C)(=O)=O)ccc1Nc1nc(NC2CCOCC2)c2c(C#N)c[nH]c2n1 [Example 109, 2-((2-methoxy-4-(methylsulfonyl)phenyl)amino)-4-((tetrahydro-2H-pyran-4-yl)amino)-7H-pyrrolo[2,3-d]pyrimidine-5-carbonitrile] |
| 301 to 1000 nM | 101 to 300 nM | < 100 nM | CCCNc1nc(Nc2ccc(P3(=O)CCN(C4CC4)CC3)cc2OC)nc2[nH]cc(C(F)(F)F)c12 [Example 401, 1-cyclopropyl-4-(3-methoxy-4-((4-(propylamino)-5-(trifluoromethyl)-7H-pyrrolo[2,3-d]pyrimidin-2-yl)amino)phenyl)-1,4-azaphosphinane 4-oxide] |
| 301 to 1000 nM | < 100 nM | < 100 nM | COCC(C)(C)Nc1nc(Nc2ccc(C(=O)N3CCOCC3)c3c2OCCO3)nc2[nH]cc(C#N)c12 [Example 131, 4-((1-methoxy-2-methylpropan-2-yl)amino)-2-((8-(morpholine-4-carbonyl)-2,3-dihydrobenzo[b][1,4]dioxin-5-yl)amino)-7H-pyrrolo[2,3-d]pyrimidine-5-carbonitrile] |
| < 100 nM | < 100 nM | < 100 nM | CNc1nc(Nc2ccc(C(=O)N3CCOCC3)c3c2OCO3)nc2[nH]cc(C(F)(F)F)c12 [Example 214, (7-((4-(methylamino)-5-(trifluoromethyl)-7H-pyrrolo[2,3-d]pyrimidin-2-yl)amino)benzo[d][1,3]dioxol-4-yl)(morpholino)methanone] |
| 301 to 1000 nM | 301 to 1000 nM | < 100 nM | O=C(c1ccc(Nc2nc(NC3CCCCC3)c3c(C(F)(F)F)c[nH]c3n2)c2c1CCO2)N1CCC(N2CCOCC2)CC1 [Example 460, (7-((4-(cyclo-hexylamino)-5-(trifluoromethyl)-7H-pyrrolo[2,3-d]pyrimidin-2-yl)amino)-2,3-dihydrobenzo-furan-4-yl)(4-morpho-linopiperidin-1-yl)methanone] |
| < 100 nM | < 100 nM | < 100 nM | CNc1nc(Nc2ccc(P3(=O)CCN(C4CCOCC4)CC3)cc2OC)nc2[nH]cc(C(F)(F)F)c12 [Example 436, 4-(3-methoxy-4-((4-(methylamino)-5-(trifluoromethyl)-7H-pyrrolo[2,3-d]pyrimidin-2-yl)amino)phenyl)-1-(tetrahydro-2H-pyran-4-yl)-1,4-azaphosphinane 4-oxide] |
| 301 to 1000 nM | 301 to 1000 nM | < 100 nM | COc1cc(S(C)(=O)=O)ccc1Nc1nc(NCC2CCCC2)c2c(C#N)c[nH]c2n1 [Example 113, 4-((cyclopentylmethyl)amino)-2-((2-methoxy-4-(methylsulfonyl)phenyl)amino)-7H-pyrrolo[2,3-d]pyrimidine-5-carbonitrile] |
| 301 to 1000 nM | 301 to 1000 nM | < 100 nM | O=C(c1ccc(Nc2nc(NC3CCCCC3)c3c(C(F)(F)F)c[nH]c3n2)c2c1OCCO2)N1CCOCC1 [Example 190, (8-((4-(cyclohexylamino)-5-(trifluoromethyl)-7H-pyrrolo[2,3-d]pyrimidin-2-yl)amino)-2,3-dihydrobenzo[b][1,4]dioxin-5-yl)(morpholino)methanone] |
| 301 to 1000 nM | 301 to 1000 nM | < 100 nM | COc1cc(S(C)(=O)=O)ccc1Nc1nc(C2CC2)c2c(C#N)c[nH]c2n1 [Example 222, 4-cyclopropyl-2-((2-methoxy-4-(methylsulfonyl)phenyl)amino)-7H-pyrrolo[2,3-d]pyrimidine-5-carbonitrile] |
| 301 to 1000 nM | 301 to 1000 nM | < 100 nM | N#Cc1c[nH]c2nc(Nc3ccc(C(=O)N4CCOCC4)c4c3OCCO4)nc(NCC3CCC3)c12 [Example 132, 4-((cyclobutylmethyl)amino)-2-((8-(morpholine-4-carbonyl)-2,3-dihydrobenzo[b][1,4]dioxin-5-yl)amino)-7H-pyrrolo[2,3-d]pyrimidine-5-carbonitrile] |

— patent US20230066011A1, “PYRROLOPYRIMIDINE DERIVATIVE, AND PHARMACEUTICAL COMPOSITION FOR PREVENTING OR TREATING PROTEIN KINASE-RELATED DISEASE COMPRISING SAME AS ACTIVE INGREDIENT” (VORONOI CO., LTD., priority 2019, published 2023)
